Laboratory results taken from BindingDB's records for doi:10.1021/jm200999f (Corning, 2011).

Target: G-protein coupled receptor 35 (Homo sapiens, UniProt Q9HC97)
Test: Antagonist activity at GPR35 in human HT-29 cells assessed as inhibition of zaprinast-induced DMR by dynamic mass redistribution assay

G-protein coupled receptor 35, sequence (Q9HC97 whole entry): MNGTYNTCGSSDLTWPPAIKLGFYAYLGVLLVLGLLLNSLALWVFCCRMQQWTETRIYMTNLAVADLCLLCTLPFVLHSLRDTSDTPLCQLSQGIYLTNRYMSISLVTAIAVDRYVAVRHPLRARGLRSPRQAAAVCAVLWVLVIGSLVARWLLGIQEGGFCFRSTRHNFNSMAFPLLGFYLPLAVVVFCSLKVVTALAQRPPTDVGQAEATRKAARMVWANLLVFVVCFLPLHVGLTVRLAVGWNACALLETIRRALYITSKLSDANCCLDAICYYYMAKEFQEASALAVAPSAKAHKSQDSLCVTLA

CCCOc1ccccc1-c1nc2nn[nH]c2c(=O)[nH]1 [5-(2-propoxyphenyl)-2H,3H,7H-[1,2,3]triazolo[4,5-d]pyrimidin-7-one]
IC50: 10.5 µM
